Assay results reported in ChEMBL document CHEMBL3297711, “Application of encoded library technology (ELT) to a protein-protein interaction target: discovery of a potent class of integrin lymphocyte function-associated antigen 1 (LFA-1) antagonists” (Bioorg Med Chem, 2014).
Activity calls are given as the source filed them. The calls are words filed in the database; no cut-off is given here.

Legend:
Integrin alpha-L = target: T1, Integrin alpha-L (Homo sapiens, UniProt P20701); test: (§1) Antagonist activity at C-terminal 6xHis-tagged LFA-1 LBD (unknown origin) expressed in Escherichia coli assessed as inhibition of interaction with ICAM-1 preincubated for 30 mins followed by ICAM-1 addition measured after 60 mins by ELISA
T1 sequence (P20701 whole entry): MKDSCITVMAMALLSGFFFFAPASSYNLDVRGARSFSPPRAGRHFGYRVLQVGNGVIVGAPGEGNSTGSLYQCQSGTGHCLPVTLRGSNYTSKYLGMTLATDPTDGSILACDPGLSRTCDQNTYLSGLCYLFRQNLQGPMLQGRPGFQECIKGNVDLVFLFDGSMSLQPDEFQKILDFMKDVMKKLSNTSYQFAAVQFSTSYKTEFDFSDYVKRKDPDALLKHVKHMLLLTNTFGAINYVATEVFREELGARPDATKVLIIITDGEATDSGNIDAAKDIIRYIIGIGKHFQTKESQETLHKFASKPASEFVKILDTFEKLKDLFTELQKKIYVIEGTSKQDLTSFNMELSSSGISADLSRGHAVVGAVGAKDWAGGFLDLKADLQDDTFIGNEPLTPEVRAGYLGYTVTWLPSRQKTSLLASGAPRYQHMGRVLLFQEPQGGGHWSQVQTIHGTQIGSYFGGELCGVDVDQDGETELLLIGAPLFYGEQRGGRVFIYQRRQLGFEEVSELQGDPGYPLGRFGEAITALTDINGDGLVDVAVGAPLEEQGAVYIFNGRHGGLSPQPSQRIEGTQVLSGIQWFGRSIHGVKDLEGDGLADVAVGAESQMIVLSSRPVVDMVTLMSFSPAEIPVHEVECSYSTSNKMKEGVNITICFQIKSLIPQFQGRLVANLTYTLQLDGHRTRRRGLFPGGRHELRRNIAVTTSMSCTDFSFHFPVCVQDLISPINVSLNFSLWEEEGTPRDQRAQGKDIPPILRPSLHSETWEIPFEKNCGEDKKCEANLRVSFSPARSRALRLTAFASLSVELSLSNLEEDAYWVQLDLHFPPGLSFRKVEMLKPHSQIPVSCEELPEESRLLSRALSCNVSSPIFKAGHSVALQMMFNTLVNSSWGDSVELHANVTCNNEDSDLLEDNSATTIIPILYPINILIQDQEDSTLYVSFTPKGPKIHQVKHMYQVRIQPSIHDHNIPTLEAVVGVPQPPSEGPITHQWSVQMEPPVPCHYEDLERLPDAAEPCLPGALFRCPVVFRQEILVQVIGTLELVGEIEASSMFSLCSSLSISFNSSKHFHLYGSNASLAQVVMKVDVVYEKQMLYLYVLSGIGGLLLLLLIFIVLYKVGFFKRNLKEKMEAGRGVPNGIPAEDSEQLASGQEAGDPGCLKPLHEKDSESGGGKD

[1] = target: T2, Integrin alpha-L (Homo sapiens) (UniProt P20701); test: Allosteric antagonist activity at wild type LFA-1 (unknown origin) transfected in human K562 cells assessed as inhibition of cell adhesion to ICAM-1 at 50 uM incubated for 30 mins under dark condition by microplate fluorimetric analysis; format: cell-based
T2 sequence (whole entry): T1 sequence (P20701 whole entry)

[2] = target: T2, Integrin alpha-L (Homo sapiens); test: as §1
[3] = target: T2, Integrin alpha-L (Homo sapiens); test: Antagonist activity at wild type LFA-1 in human Jurkat cells assessed as inhibition of PMA-stimulated cell adhesion to ICAM-1 at 50 uM incubated for 45 mins under dark condition by microplate fluorimetric analysis; format: cell-based
K562 [4] = test: Allosteric antagonist activity at LFA-1 K287C/K294C double mutant (unknown origin) transfected in human K562 cells assessed as inhibition of cell adhesion to ICAM-1 at 50 uM incubated for 30 mins under dark condition by microplate fluorimetric analysis in absence of DTT; format: cell-based
K562 [5] = test: Allosteric antagonist activity at LFA-1 K287C/K294C double mutant (unknown origin) transfected in human K562 cells assessed as inhibition of cell adhesion to ICAM-1 at 50 uM incubated for 30 mins under dark condition by microplate fluorimetric analysis in presence of DTT; format: cell-based
[6] = target: T2, Integrin alpha-L (Homo sapiens); test: Binding affinity to LFA-1 (unknown origin) transfected in human K562 cells by FACS analysis relative to control; format: cell-based

Work on CCNC(=O)C1(Nc2nc(N[C@@H](C)c3ccccc3)nc(N3CC4CC3CN4C(=O)c3cccc(C(F)(F)F)c3)n2)Cc2ccccc2C1 (stereo partly drawn) yielded an IC50 (Integrin alpha-L) of 180 nM.

For CCNC(=O)C1(Nc2nc(N[C@H](C)c3ccccc3)nc(N3CC4CC3CN4C(=O)c3cccc(C(F)(F)F)c3)n2)Cc2ccccc2C1 (stereo partly drawn), the IC50 (Integrin alpha-L) was > 10000 nM.

For CCNC(=O)C1(Nc2nc(NCCc3ccc(Cl)c(Cl)c3)nc(N3CC4CC3CN4C(=O)c3cccc(C(F)(F)F)c3)n2)Cc2ccccc2C1 (stereo not drawn), the inhibition [1] was “Active”, the inhibition [2] was “Dose-dependent effect” and the IC50 (Integrin alpha-L) was 23 nM. For the same compound, the inhibition [3] was “Active”, the inhibition (K562 [4]) was “inactive” and the inhibition (K562 [5]) was “Active”.

O=C(c1cccc(C(F)(F)F)c1)N1CC2CC1CN2c1nc(NCCc2ccc(Cl)c(Cl)c2)nc(NC2CCCC2)n1 (stereo not drawn) was tested, and the IC50 (Integrin alpha-L) was > 10000 nM.

Compound CCNC(=O)C1(Nc2nc(NCCc3ccc(Cl)c(Cl)c3)nc(N3CCCC3)n2)Cc2ccccc2C1 has an IC50 (Integrin alpha-L) of 12900 nM.

Compound CCN1/C(=C/C=C/C2=[N+](CCCCCC(=O)NCCCCNC(=O)C3(Nc4nc(NCCc5ccc(Cl)c(Cl)c5)nc(N5CC6CC5CN6S(=O)(=O)c5cccc(C(F)(F)F)c5)n4)Cc4ccccc4C3)c3ccc(S(=O)(=O)O)cc3C2(C)C)C(C)(C)c2cc(S(=O)(=O)O)ccc21 (stereo not drawn) has an IC50 (Integrin alpha-L) of 28 nM and a fold change (FC) [6] of 2.

In the case of CCNC(=O)C1(Nc2nc(N[C@@H](C)c3ccc(Br)cc3)nc(N3CC4CC3CN4C(=O)c3cccc(C(F)(F)F)c3)n2)Cc2ccccc2C1 (stereo partly drawn), the inhibition [1] is reported as “Active”, the inhibition [2] is reported as “Dose-dependent effect” and the IC50 (Integrin alpha-L) is reported as 16 nM. The inhibition [3] was “Active”, the inhibition (K562 [4]) was “inactive” and the inhibition (K562 [5]) was “Active”.

O=C(c1cccc(C(F)(F)F)c1)N1CC2CC1CN2c1nc(NCCc2ccc(Cl)c(Cl)c2)nc(NC2(C(=O)O)Cc3ccccc3C2)n1 (stereo not drawn) was tested, and the IC50 (Integrin alpha-L) was 37 nM.

For CCN1/C(=C/C=C/C2=[N+](CCCCCC(=O)NCCCCNC(=O)C3(Nc4nc(NCCc5ccc(Cl)c(Cl)c5)nc(N5CC6CC5CN6C(=O)c5cccc(C(F)(F)F)c5)n4)Cc4ccccc4C3)c3ccc(S(=O)(=O)O)cc3C2(C)C)C(C)(C)c2cc(S(=O)(=O)O)ccc21 (stereo not drawn), the IC50 (Integrin alpha-L) was 100 nM and the fold change (FC) [6] was 3.

In the case of CCNC(=O)C1(Nc2nc(NCCc3ccc(Cl)c(Cl)c3)nc(N3CC4CC3CN4S(=O)(=O)c3ccccc3OC(F)(F)F)n2)Cc2ccccc2C1 (stereo not drawn), the inhibition [1] is reported as “Active”, the inhibition [2] is reported as “Dose-dependent effect” and the IC50 (Integrin alpha-L) is reported as 22 nM. For the same compound, the inhibition [3] was “Active”, the inhibition (K562 [4]) was “inactive” and the inhibition (K562 [5]) was “Active”.

In the case of CCNC(=O)C1(Nc2nc(NCc3ccccc3)nc(N3CC4CC3CN4C(=O)c3cccc(C(F)(F)F)c3)n2)Cc2ccccc2C1 (stereo not drawn), the IC50 (Integrin alpha-L) is reported as 7900 nM.

Work on CCNC(=O)C1(Nc2nc(NCCc3ccccc3)nc(N3CC4CC3CN4C(=O)c3cccc(C(F)(F)F)c3)n2)Cc2ccccc2C1 (stereo not drawn) yielded an IC50 (Integrin alpha-L) of 488 nM.

For CCNC(=O)C1(Nc2nc(NCC)nc(N3CC4CC3CN4C(=O)c3cccc(C(F)(F)F)c3)n2)Cc2ccccc2C1 (stereo not drawn), the IC50 (Integrin alpha-L) was > 10000 nM.

O=C(O)C1(Nc2nc(NCCc3ccc(Cl)c(Cl)c3)nc(N3CC4CC3CN4S(=O)(=O)c3cccc(C(F)(F)F)c3)n2)Cc2ccccc2C1 (stereo not drawn) gave an IC50 (Integrin alpha-L) of 65 nM.

O=C(c1cccc(C(F)(F)F)c1)N1CC2CC1CN2c1nc(NCCc2ccc(Cl)c(Cl)c2)nc(NC2Cc3ccccc3C2)n1 (stereo not drawn) gave an IC50 (Integrin alpha-L) of 358 nM.

In the case of CCNC(=O)C1(Nc2nc(N[C@@H](C)c3ccc(Br)cc3)nc(N3CC4CC3CN4S(=O)(=O)c3ccccc3OC(F)(F)F)n2)Cc2ccccc2C1 (stereo partly drawn), the inhibition [1] is reported as “Active”, the inhibition [2] is reported as “Dose-dependent effect” and the IC50 (Integrin alpha-L) is reported as 117 nM. The inhibition [3] was “Active”, the inhibition (K562 [4]) was “inactive” and the inhibition (K562 [5]) was “Active”.
